These results are taken from article PMC5068747, “Using C. elegans Forward and Reverse Genetics to Identify New Compounds with Anthelmintic Activity” (PLoS Neglected Tropical Diseases, 2016).

The structures appear in SMILES notation. Where two headings read alike, the source gives them in different places.

Type in all cases: in vivo, Caenorhabditis elegans
The test system of experiment [1] is C. elegans VC2010 (wild type). In words: WormScan screen of C. elegans growth, fecundity, motility and mortality. As to conditions: Caenorhabditis elegans, 120 h, 5 days exposure. On the procedure: (§1) All compound libraries were stored in 96-well plates, with 80 drugs per plate (columns 1 and 12 left empty). A BioGrid BG600 pinning robot (Digilab / BioRobotics) was used for compound transfer. The robot uses a 96-pin tool (0.7 mm dia.) to transfer a nominal volume of 340 nL of compound. For retesting, compounds were hand pinned from the original library plates to assay plates using a single 0.7 mm dia. pin. The assay plates were 96-well clear flat-bottom microplates containing 2% χ1666 E.coli bacteria in 0.5X Liquid Nematode Growth Media (LNGM) plus cholesterol (Bacteria were mass-grown in rich media, and harvested by centrifugation to produce a thick paste of bacterial cells that was kept frozen at -20°C. Cells were resuspended at 2% W/V in 0.5X LNGM to produce liquid worm food). Using a COPAS Biosort (Union Biometrica), two L4 to young adult stage VC2010 worms were added to each well of the plate in a final volume of 45 μL. After five days of exposure to the compounds, the plates were scanned and the data analyzed. A five day time period was chosen to be able to observe effects over all stages of the life cycle and through at least one round of replication. The initial proof-of-principle primary screen was performed manually using a dissecting microscope. Phenotypes scored included decreased motility, reduced brood size, and/or death as described previously. For high throughput screening of the Chembridge and Maybridge compound libraries we used the program WormScan, which was adapted for screening 96-well flat-bottom LNGM plates. Using WormScan it was possible to screen four 96-well plates at a time. Plates were scanned twice, at a resolution of 1200 dots per inch, 16-bit grayscale, producing a jpeg image. The light intensity produced by the scanner was sufficient to cause negative phototaxis equivalent to a physical stimulus for mortality determination. The time required to scan four 96-well plates using an Epson Perfection V700 Photo Scanner was less than ten minutes. The time to screen a single plate was less than 1.2 minutes, with less than ten seconds between scans.
(§2) WormScan was used to screen for the same phenotypes as in the manual screen (reduced brood size, reduced behavior/motility response and increased mortality). Two sequential scans for each 96-well plate were aligned to a reference region of interest (ROI). Image analysis was based on a difference image score calculated for each ROI. The difference image score (WormScan score) was normalized using a “percent of control” method to derive a normalized WormScan score. […] Wild-type growth in 1% DMSO (Fig 1A) results in a normalized WormScan score of 100. Exposure to 50 nM ivermectin gives a score of 0 (Fig 1C), and complete absence of worms gives a score of 0 (Fig 1D). For the primary screen the WormScan score was calculated using custom macro scripts written for Fiji. For secondary screening and any subsequent studies the WormScan score was calculated using a standalone Java program (See supplemental). Probit regression of mortality was calculated using Mathematica 8.0.

Experiment [2] relates to C. elegans VC3635 (pink-1 gk3615, D19 resistant). As to the kind of experiment: IC50 on CID 2747322 resistant C. elegans strain VC3635. As to conditions: Caenorhabditis elegans, 120 h; 5 days exposure, 2 L4 per well, three biological replicates. Here is the method:
as §1, §2
(§3) A standard ethyl methanesulfonate (EMS) mutagenesis protocol was carried out using VC2010 in order to generate mutants resistant to CID 2747322 exposure. First larval stage (L1) F2 progeny of mutagenized P0s were exposed to CID 2747322 at 200 μM in liquid worm food in 24-well tissue culture plates for five days at room temperature, and two independently isolated resistant lines (VC3614 and VC3615) were identified. […]

Experiment [3] concerns C. elegans VC3631 (mev-1 gk3613, D19 resistant). As to the kind of experiment: IC50 on CID 2747322 resistant C. elegans strain VC3631. The conditions noted are these: Caenorhabditis elegans, 120 h; 5 days exposure, 2 L4 per well, three biological replicates. Here is the method: as §1, §2, §3

For orientation: IC50 means the concentration that gives 50% inhibition. As for `COc1ccc(OCCNC(=O)c2ccccc2C(F)(F)F)cc1` [CID 2747322, N-[2-(4-methoxyphenoxy)ethyl]-2-(trifluoromethyl)benzamide], the IC50 in experiment [1] (2 L4 per well, three biological replicates, read-out: IC50, strain VC2010 (wild type)) was 18 µM; in experiment [1] (C. elegans, read-out: Nematode IC50), 18 µM; in experiment [2], more than 500 µM; in experiment [3], more than 500 µM.
